Test results as given in US9303042B2, “Triazolothienopyrimidine compound inhibitors of urea transporters and methods of using inhibitors” (The Regents of the University of California, priority 2012, dated 2016).
Read-outs that look alike come from different tables or passages of the source.

Tests used:
[1] = target: T1, mouse UT-B (Mus musculus, UniProt Q8VHL0); assay: Stopped-flow light scattering assay of erythrocyte urea transport, mouse erythrocytes; format: cell-based
T1 construct: Screening was performed using mouse erythrocytes, which strongly express UT-B; endogenous in cells; host or cells: erythrocytes in whole blood of wild-type CD1 mice
T1 sequence (Q8VHL0 1-384): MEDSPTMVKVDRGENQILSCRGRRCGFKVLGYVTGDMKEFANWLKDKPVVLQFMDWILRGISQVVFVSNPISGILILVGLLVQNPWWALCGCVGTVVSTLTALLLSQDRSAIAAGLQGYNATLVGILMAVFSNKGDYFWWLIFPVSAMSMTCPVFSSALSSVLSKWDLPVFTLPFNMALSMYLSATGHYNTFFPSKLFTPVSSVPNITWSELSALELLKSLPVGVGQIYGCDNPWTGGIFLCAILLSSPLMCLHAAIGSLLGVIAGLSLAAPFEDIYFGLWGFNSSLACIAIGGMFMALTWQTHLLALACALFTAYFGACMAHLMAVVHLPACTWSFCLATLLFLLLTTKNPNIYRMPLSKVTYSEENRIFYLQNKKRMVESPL
Procedure: (§1) Erythrocyte urea and water permeabilities were measured by stopped-flow light scattering using a Hi-Tech Sf-51 instrument (Wiltshire, UK). For measurement of urea permeability, dilutions of whole blood (mouse or human) in PBS (hematocrit ˜0.5%) were incubated with test compounds for 5 min and then subjected to a 100-mM inwardly directed urea gradient. After an initial osmotic shrinking phase, the kinetics of increasing cell volume caused by urea influx was measured as the time-course of 90° scattered light intensity at 530 nm, with increasing cell volume producing reduced scattered light intensity. Urea permeability and percentage inhibition were computed as described (see, e.g., Levin et al., FASEB J. supra, 2007)). In some experiments, different urea gradients (25-200 mM) were used, or inhibitor was added only to the erythrocyte-containing or urea-containing solutions. In some experiments an outwardly directed urea gradient was used in which erythrocytes were incubated for 30 min with PBS containing specified urea and mixed in the stopped-flow apparatus with PBS. In reversibility experiments, erythrocytes were incubated for 30 min with inhibitor, washed three times to remove inhibitor, and urea transport assayed. Osmotic water permeability was measured using a 100 mM gradient of sucrose.
UT-B inhibition potency was assayed quantitatively by stopped-flow light scattering from the kinetics of urea influx in response to an inwardly directed urea gradient (see Materials and Methods above). Rapid mixing of an erythrocyte suspension with an equal volume of a hyperosmolar, urea-containing solution to give a 100 mM inwardly directly urea gradient produced rapid cell shrinking due to osmotic water efflux, followed by cell swelling as a consequence of urea (and water) influx.
Measurements were done using a Hi-Tech Sf-51 instrument (Wiltshire, UK). Whole blood (mouse or human) was diluted in PBS (hematocrit approximately 0.5%), incubated with inhibitor for 5 min and then subjected to a 100-mM inwardly directed urea gradient. The kinetics of increasing cell volume caused by urea influx was measured as the time-course of 90° scattered light intensity at 530 nm. Urea permeability and percentage inhibition were computed as described (see, e.g., Levin et al., supra 2007).

[2] = target: T2, human UT-B (Homo sapiens, UniProt Q13336); assay: Stopped-flow light scattering assay of erythrocyte urea transport, human erythrocytes; format: cell-based; conditions: urea influx, 100 mM inwardly directed urea gradient
T2 construct: endogenous in cells; host or cells: erythrocytes in human venous whole blood
T2 sequence (Q13336 1-389): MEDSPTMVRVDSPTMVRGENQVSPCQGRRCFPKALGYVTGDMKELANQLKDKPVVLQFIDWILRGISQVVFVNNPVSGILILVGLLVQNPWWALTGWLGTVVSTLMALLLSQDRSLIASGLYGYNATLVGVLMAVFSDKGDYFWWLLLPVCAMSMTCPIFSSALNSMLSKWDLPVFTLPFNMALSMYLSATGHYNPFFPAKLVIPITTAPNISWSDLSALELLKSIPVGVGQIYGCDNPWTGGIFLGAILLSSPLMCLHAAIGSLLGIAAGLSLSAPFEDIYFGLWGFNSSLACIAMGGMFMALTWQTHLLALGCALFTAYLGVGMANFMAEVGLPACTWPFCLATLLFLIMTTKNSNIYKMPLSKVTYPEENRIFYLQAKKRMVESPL
Procedure: as §1, with “In some experiments an outwardly directed urea gradient was used in which erythrocytes were incubated for 30 min with PBS containing specified urea and mixed in the stopped-flow apparatus with PBS. In reversibility experiments, erythrocytes were incubated for 30 min with inhibitor, washed three times to remove inhibitor, and urea transport assayed.” left out
UT-B inhibition potency was assayed quantitatively by stopped-flow light scattering from the kinetics of urea influx in response to an inwardly directed urea gradient (see Materials and Methods above). […]
Measurements were done using a Hi-Tech Sf-51 instrument (Wiltshire, UK). […] The kinetics of increasing cell volume caused by urea influx was measured as the time-course of 90° scattered light intensity at 530 nm. […]

[3] = In vitro metabolic stability in hepatic microsomes; format: in vitro ADME, rat
Procedure: Compounds, each at 5 μM, were incubated for specified times at 37° C. with rat liver microsomes (1 mg protein/ml; Sigma-Aldrich, St. Louis, Mo.) in potassium phosphate buffer (100 mM) containing 1 mM NADPH. The mixture was then chilled on ice, and 0.5 ml of ice-cold ethyl acetate was added.

[4] = target: T3, CFTR (Homo sapiens, UniProt P13569); assay: CFTR chloride conductance by short-circuit current; format: cell-based; conditions: 10 μM, forskolin-activated
T3 construct: expressed in transfected cells

[5] = LC/MS analysis of compound in mouse kidney, blood and urine
Procedure: (§2) In some studies, mice were placed on low, normal or […] diets (4%, 20% or 40% casein, Harlan Labs.) for 1 week prior study of dDAVP effects. […] Urea concentration was determined by a colorimetric enzymatic assay as described above. Measurements were also done in the absence of dDAVP in which urine was collected during free access to food and water.
Kidneys were weighed, mixed with acetic acid (100 μL per 1 g tissue) and ethyl acetate (10 mL per 1 g tissue), and homogenized.

[6] = tested on: mice; assay: Urinary concentration in mice; format: in vivo, mouse
Procedure: as §2, with “water. […]” for “water.”

[7] = tested on: mice; assay: Urinary concentration in mice; format: in vivo, mouse; conditions: 1 week high-protein diet, 300 μg
[8] = for several hours following a single intraperitoneal administration
[9] = free access to food and water, no dDAVP, 300 μg

T3 sequence (P13569 whole entry): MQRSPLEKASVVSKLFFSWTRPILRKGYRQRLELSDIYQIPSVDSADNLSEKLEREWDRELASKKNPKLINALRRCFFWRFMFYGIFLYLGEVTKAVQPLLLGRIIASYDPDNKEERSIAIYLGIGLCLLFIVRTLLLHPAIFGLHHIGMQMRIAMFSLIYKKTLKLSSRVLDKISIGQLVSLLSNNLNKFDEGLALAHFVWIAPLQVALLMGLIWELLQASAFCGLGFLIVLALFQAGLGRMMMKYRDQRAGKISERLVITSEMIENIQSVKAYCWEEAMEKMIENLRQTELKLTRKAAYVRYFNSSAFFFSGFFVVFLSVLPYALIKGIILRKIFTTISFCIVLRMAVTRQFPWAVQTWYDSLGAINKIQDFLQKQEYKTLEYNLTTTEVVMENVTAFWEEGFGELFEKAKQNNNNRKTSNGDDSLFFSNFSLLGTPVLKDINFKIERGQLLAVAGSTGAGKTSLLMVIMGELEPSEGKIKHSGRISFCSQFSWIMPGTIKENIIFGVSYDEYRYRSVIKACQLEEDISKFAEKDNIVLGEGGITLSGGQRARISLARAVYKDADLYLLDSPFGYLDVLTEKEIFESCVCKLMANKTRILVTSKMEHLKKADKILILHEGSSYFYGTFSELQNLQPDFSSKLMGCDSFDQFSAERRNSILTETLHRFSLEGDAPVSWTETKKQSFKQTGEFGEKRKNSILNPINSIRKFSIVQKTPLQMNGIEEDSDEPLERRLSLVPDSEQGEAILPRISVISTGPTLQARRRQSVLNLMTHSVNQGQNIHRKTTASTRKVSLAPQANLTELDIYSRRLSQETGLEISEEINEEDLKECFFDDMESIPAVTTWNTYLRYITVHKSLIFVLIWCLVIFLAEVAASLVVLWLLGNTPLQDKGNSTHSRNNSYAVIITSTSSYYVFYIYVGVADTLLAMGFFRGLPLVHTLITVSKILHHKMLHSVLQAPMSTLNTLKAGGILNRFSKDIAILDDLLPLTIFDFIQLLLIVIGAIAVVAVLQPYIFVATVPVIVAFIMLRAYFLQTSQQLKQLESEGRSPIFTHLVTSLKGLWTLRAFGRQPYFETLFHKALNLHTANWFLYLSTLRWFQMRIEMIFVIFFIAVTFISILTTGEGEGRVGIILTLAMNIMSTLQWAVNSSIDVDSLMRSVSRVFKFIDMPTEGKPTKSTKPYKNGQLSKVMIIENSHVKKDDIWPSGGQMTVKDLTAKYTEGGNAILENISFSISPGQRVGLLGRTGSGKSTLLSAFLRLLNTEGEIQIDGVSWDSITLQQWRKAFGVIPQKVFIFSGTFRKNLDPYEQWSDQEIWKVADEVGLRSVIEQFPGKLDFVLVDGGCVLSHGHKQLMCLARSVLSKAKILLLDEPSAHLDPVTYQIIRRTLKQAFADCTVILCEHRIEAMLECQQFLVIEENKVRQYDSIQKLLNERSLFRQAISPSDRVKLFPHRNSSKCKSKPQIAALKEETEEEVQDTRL

CCc1ccc(S(=O)(=O)c2nnn3c2nc(NCc2cccs2)c2sccc23)cc1 [UTBinh-14, [3-(4-Ethyl-benzenesulfonyl)-thieno[2,3-e][1,2,3]triazolo[1,5-a]pyrimidin-5-yl]-thiophen-2-ylmethylamine]
mechanism of UT-B inhibition vs urea ([1]; 0 and 50 nM, urea gradient varied): competitive
reduction of urea transport ([1]; 100 nM, mouse erythrocytes): approximately 75%
reversibility of UT-B inhibition ([1]; 100 nM, washout): reversible
inhibition at 1 µM ([1]; 1 μM): ~100%
urea transport in UT-B null erythrocytes ([1]; erythrocytes from UT-B knockout mice): did not inhibit
IC50 ([1]; erythrocytes pre-loaded with 100 mM urea, mixed with urea-free PBS, read-out: IC50 urea efflux): 26.7 nM
IC50 ([1]; urea influx, 100 mM inwardly directed urea gradient, read-out: IC50 for mouse UT-B): 25.1 nM
IC50 [2]: 10.3 nM
t1/2 for disappearance in hepatic microsomes ([3]; hepatic microsomes, NADPH): approximately 2.8 min
% Remaining ([3]; parent molecule after 30 min incubation with rat liver microsomes): <5%
inhibition of CFTR chloride conductance [4]: no significant inhibition
concentration in kidney ([5]; for at least 4 h after single intraperitoneal 300 μg): greater than 1 μM
concentration in blood [5, 8]: greater than 1 μM
concentration in urine [5, 8]: greater than 1 μM
Peak concentration in kidney ([5]; single intraperitoneal 300 μg, normalized to kidney water volume): approximately 10 μM
urine osmolality, UT-B knockout mice ([6]; 300 μg intraperitoneal, dDAVP): did not significantly reduce
urine urea concentration, UT-B knockout mice ([6]; 300 μg intraperitoneal, dDAVP): did not significantly reduce
urine osmolality, wild type mice ([6]; 300 μg intraperitoneal, dDAVP 1 h later): significantly reduced
effect on dDAVP-stimulated urinary concentration, low-protein diet ([6]; 1 week low-protein diet, 300 μg): little effect
urine osmolality [6, 9]: reduced
urine urea concentration [6, 9]: reduced
urine volume [6, 9]: significantly increased
effect on dDAVP-stimulated urinary concentration, high-protein diet [7]: robust effect
